Patent publication US6207393A, “Inhibition of intracellular signal transduction by 14-3-3-binding peptides” (Washington University, priority 1999, dated 2001)
Where “and” joins values, the source holds several entries; their conditions need not be identical. Equal values may be shown once. Where a SMILES comes first, the peptide text is derived from it. Where no end group is shown, it is not given here. [ ]: non-standard residue; d: D form. pS = N[C@@H](COP(=O)(O)O)C(=O)O

Key:
14-3-3 tau = target: T1, 14-3-3 tau (Homo sapiens, UniProt P27348); test: SPR competitive inhibition of 14-3-3 tau binding to phosphorylated Raf-259 peptide; conditions: isoform tau
T1 construct: made in house; host or cells: E. coli DH5α (vector pGEX-KT)
T1 sequence (P27348 1-245): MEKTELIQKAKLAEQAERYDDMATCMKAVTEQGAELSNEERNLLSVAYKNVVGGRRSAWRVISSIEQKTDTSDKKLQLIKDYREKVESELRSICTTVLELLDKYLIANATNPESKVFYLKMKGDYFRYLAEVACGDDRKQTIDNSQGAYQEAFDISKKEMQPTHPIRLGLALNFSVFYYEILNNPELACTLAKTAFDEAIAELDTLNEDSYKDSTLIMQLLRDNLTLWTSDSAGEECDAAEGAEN
Procedure: (§1) The ability of each peptide to inhibit binding of 14-3-3 zeta to the phosphorylated peptide was then tested in a range of concentrations between 1 and 50 μM. 14-3-3 zeta was prepared according to the methods in Example 1 and binding affinities and specificities were determined using the peptides in Table 2. The 14-3-3 zeta fusion proteins (0.5-1.0 μM) were pre-incubated with a given peptide at concentrations between 1 μM and 50 μM. 14-3-3 zeta was then infused across a sensor chip surface which had been previously coupled with the phosphorylated Raf-259 peptide (SEQ ID NO: 4). IC50 values were determined by plotting the concentration of competitor peptide required to achieve a 50% reduction in equilibrium binding.
(§2) There are seven known isoforms of 14-3-3 which form homo- and heterodimers in vivo. If different isoforms of 14-3-3 could bind to proteins with distinct specificities, heterodimeric forms of 14-3-3 might function as modular linker proteins, bringing together different proteins into a single complex. We were, therefore, interested in determining whether different 14-3-3 isoforms recognize phosphoserine in a sequence specific fashion. This hypothesis was tested by expressing and purifying three other 14-3-3 isoforms, eta, beta and tau, and measuring their affinity towards the panel of phosphorylated peptides generated above. Using the Surface Plasmon Resonance method, the "on" and "off" rates for 14-3-3 binding to the phosphorylated Raf-259 peptide were calculated (Table 6).
(§3) Competitive inhibition with the mutated phosphorylated Raf-1 peptides was used to determine whether their specificities were similar (Table 7). In each case, the calculated IC50 s were very similar to those calculated for 14-3-3 zeta.

14-3-3 zeta [1] = target: T2, 14-3-3 zeta (Homo sapiens, UniProt P63104); test: SPR competitive inhibition of 14-3-3 zeta binding to chip-coupled phosphorylated Raf-259 peptide; conditions: 14-3-3 zeta 0.5-1.0 μM; competitor 1-50 μM; relative affinity only
T2 construct: made in house; host or cells: E. coli DH5α (vector pGEX-KT)
T2 sequence (P63104 1-245): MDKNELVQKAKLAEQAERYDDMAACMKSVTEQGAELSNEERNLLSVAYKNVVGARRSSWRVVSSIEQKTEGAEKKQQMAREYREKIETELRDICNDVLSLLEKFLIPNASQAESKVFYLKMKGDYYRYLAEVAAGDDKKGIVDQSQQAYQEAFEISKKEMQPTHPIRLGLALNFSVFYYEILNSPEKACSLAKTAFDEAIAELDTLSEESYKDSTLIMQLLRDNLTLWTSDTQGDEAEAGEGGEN
Procedure: as §1

14-3-3 eta = target: T3, 14-3-3 eta (Homo sapiens, UniProt Q04917); test: SPR competitive inhibition of 14-3-3 eta binding to phosphorylated Raf-259 peptide; conditions: isoform eta
T3 construct: made in house; host or cells: E. coli DH5α (vector pGEX-KT)
T3 sequence (Q04917 1-246): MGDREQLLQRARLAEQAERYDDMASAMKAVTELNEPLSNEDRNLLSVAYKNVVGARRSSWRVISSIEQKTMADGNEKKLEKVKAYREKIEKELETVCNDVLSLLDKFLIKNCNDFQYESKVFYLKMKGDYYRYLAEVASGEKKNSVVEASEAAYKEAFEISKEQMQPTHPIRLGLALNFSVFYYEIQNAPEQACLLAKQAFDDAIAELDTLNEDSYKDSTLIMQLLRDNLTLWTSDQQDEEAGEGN
Procedure: as §1, §2, §3

14-3-3 beta = target: T4, 14-3-3 beta (Homo sapiens, UniProt P31946); test: SPR competitive inhibition of 14-3-3 beta binding to phosphorylated Raf-259 peptide; conditions: isoform beta
T4 construct: made in house; host or cells: E. coli DH5α (vector pGEX-KT)
T4 sequence (P31946 1-246): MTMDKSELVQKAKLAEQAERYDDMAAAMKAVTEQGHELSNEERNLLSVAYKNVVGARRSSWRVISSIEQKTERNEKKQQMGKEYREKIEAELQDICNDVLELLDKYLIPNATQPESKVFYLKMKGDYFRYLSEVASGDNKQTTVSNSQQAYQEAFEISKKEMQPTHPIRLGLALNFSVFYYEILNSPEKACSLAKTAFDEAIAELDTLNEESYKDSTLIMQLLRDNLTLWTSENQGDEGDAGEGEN
Procedure: as §1, §2, §3

14-3-3 zeta [2] = target: T2, 14-3-3 zeta; test: Surface plasmon resonance, GST-14-3-3 zeta binding to immobilized biotinylated Raf-259 peptide (binding and kinetics); conditions: 14-3-3 zeta
Procedure: These experiments were performed using the BIAcore 2000 (Pharmacia). The basic principles and detection methods have been reviewed previously (Jonsson et al. Biotech. 11:620-7, 1991; Jonsson et al. Ann Bio Clin 51:19-26, 1993 which are incorporated by reference). In brief, 5 μl of the biotinylated raf-259 peptide (1 nM) was immobilized onto streptavidin-coated (SA5, Pharmacia) sensor chips at a flow rate of 5 μl/min at 25° C. […] To phosphorylate the immobilized peptides, 5 U of PKA in a buffer containing 200 μM ATP in 50 μl was infused over the chip at a flow rate of 2 μl/min at 30° C.
Because the surface plasmon resonance detects binding in real time, this method can be used to directly determine the rates of association (kon) and dissociation (koff). For these kinetic measurements, GST/14-3-3 fusion proteins were injected over a range of concentrations between 200 nM and 5 μM. The "on" rate, kon, was determined by calculating dR/dt for the initial linear portion of association using the Biaevaluation software (Pharmacia). Because ligand rebinding to the sensor chip can affect the "off" rate (koff, Panayotou et al. Mol Cell Biol 13:3567-76, 1993 which is incorporated by reference), we measured the "off" rate in the presence of 50 μM free ligand by using the coinject function of the Biacore. The "off" rate measured in the absence of 50 μM free ligand was approximately 10-fold lower.
The biotinylated, […] Raf-1 peptide (SEQ ID NO: 4) was coupled to avidin coated chip surface to study the kinetics of its binding to 14-3-3 zeta. The association rate was determined to be approximately 2.3×10^4 M^-1×s^-1 and the dissociation rate was determined to be approximately 2.8×10^-3 s^-1. To minimize the effects of protein rebinding to the surface of the sensor chip, the dissociation rate was measured in the presence of 50 μM free phosphorylated Raf-1 peptide.

Compound	IC50 (14-3-3 tau) [µM]	IC50 (14-3-3 zeta [1])	IC50 (14-3-3 eta) [µM]	IC50 (14-3-3 beta) [µM]	Kd (14-3-3 zeta [2]; KD = koff/kon, read-out: apparent KD measured by SPR) [µM]	koff (14-3-3 zeta [2]; in the presence of 50 μM free phosphorylated Raf-1 peptide, read-out: dissociation rate) [s⁻¹]	kon (14-3-3 zeta [2]; read-out: association rate) [M⁻¹ s⁻¹]
CSCC[C@H](NC(=O)[C@H](Cc1c[nH]cn1)NC(=O)[C@@H](NC(=O)[C@H](CC(N)=O)NC(=O)[C@H](C)NC(=O)[C@@H](NC(=O)[C@H](COP(=O)(O)O)NC(=O)[C@@H](NC(=O)[C@H](CO)NC(=O)[C@H](CCCNC(=N)N)NC(=O)[C@H](CCC(N)=O)NC(=O)[C@H](CCCNC(=N)N)NC(=O)[C@H](CCC(N)=O)NC(=O)[C@H](CO)NC(=O)[C@@H](N)CC(C)C)[C@@H](C)O)[C@@H](C)O)C(C)C)C(=O)O [PA] (H-LSQRQRST[pS]TANVHM-OH)	27	~25 µM and 25 µM	20	24	–	–	–
CC(C)C[C@H](N)C(=O)N[C@@H](CO)C(=O)N[C@@H](CCC(N)=O)C(=O)N[C@@H](C)C(=O)N[C@@H](CCCNC(=N)N)C(=O)N[C@@H](CCC(N)=O)C(=O)N[C@@H](CO)C(=O)N[C@H](C(=O)N[C@@H](COP(=O)(O)O)C(=O)N[C@H](C(=O)N1CCC[C@H]1C(=O)N[C@@H](CC(N)=O)C(=O)N[C@H](C(=O)N[C@@H](Cc1c[nH]cn1)C(=O)N[C@@H](C)C(=O)O)C(C)C)[C@@H](C)O)[C@@H](C)O [Peptide R-4] (H-LSQARQST[pS]TPNVHA-OH)	–	11 µM	–	–	–	–	–
CC(C)C[C@H](N)C(=O)N[C@@H](CO)C(=O)N[C@@H](CCC(N)=O)C(=O)N[C@@H](C)C(=O)N[C@@H](CCC(N)=O)C(=O)N[C@@H](C)C(=O)N[C@@H](CO)C(=O)N[C@H](C(=O)N[C@@H](COP(=O)(O)O)C(=O)N[C@H](C(=O)N1CCC[C@H]1C(=O)N[C@@H](CC(N)=O)C(=O)N[C@H](C(=O)N[C@@H](Cc1c[nH]cn1)C(=O)N[C@@H](C)C(=O)O)C(C)C)[C@@H](C)O)[C@@H](C)O [254/256RA] (H-LSQAQAST[pS]TPNVHA-OH)	> 50	> 50 µM	> 50	> 50	–	–	–
CC(C)C[C@H](N)C(=O)N[C@@H](CO)C(=O)N[C@@H](CCC(N)=O)C(=O)N[C@@H](CCCNC(=N)N)C(=O)N[C@@H](CCC(N)=O)C(=O)N[C@@H](CCCNC(=N)N)C(=O)N[C@@H](COP(=O)(O)O)C(=O)N[C@H](C(=O)N[C@@H](CO)C(=O)N[C@H](C(=O)N1CCC[C@H]1C(=O)N[C@@H](CC(N)=O)C(=O)N[C@H](C(=O)N[C@@H](Cc1c[nH]cn1)C(=O)N[C@@H](C)C(=O)O)C(C)C)[C@@H](C)O)[C@@H](C)O [pS-Raf-257] (H-LSQRQR[pS]TSTPNVHA-OH)	> 50	> 50 µM	> 50	> 50	–	–	–
CC(C)C[C@H](N)C(=O)N[C@@H](CO)C(=O)N[C@@H](CCC(N)=O)C(=O)N[C@@H](C)C(=O)N[C@@H](CCC(N)=O)C(=O)N[C@@H](CCCNC(=N)N)C(=O)N[C@@H](CO)C(=O)N[C@H](C(=O)N[C@@H](COP(=O)(O)O)C(=O)N[C@H](C(=O)N1CCC[C@H]1C(=O)N[C@@H](CC(N)=O)C(=O)N[C@H](C(=O)N[C@@H](Cc1c[nH]cn1)C(=O)N[C@@H](C)C(=O)O)C(C)C)[C@@H](C)O)[C@@H](C)O [Peptide 254RA] (H-LSQAQRST[pS]TPNVHA-OH)	–	9 µM	–	–	–	–	–
CC(C)C[C@H](N)C(=O)N[C@@H](CO)C(=O)N[C@@H](CCC(N)=O)C(=O)N[C@@H](CCCNC(=N)N)C(=O)N[C@@H](CCC(N)=O)C(=O)N[C@@H](C)C(=O)N[C@@H](CO)C(=O)N[C@H](C(=O)N[C@@H](COP(=O)(O)O)C(=O)N[C@H](C(=O)N1CCC[C@H]1C(=O)N[C@@H](CC(N)=O)C(=O)N[C@H](C(=O)N[C@@H](Cc1c[nH]cn1)C(=O)N[C@@H](C)C(=O)O)C(C)C)[C@@H](C)O)[C@@H](C)O [Peptide 256RA] (H-LSQRQAST[pS]TPNVHA-OH)	–	19 µM	–	–	–	–	–
CC(C)C[C@H](N)C(=O)N[C@@H](CO)C(=O)N[C@@H](CCC(N)=O)C(=O)N[C@@H](CCCNC(=N)N)C(=O)N[C@@H](CCC(N)=O)C(=O)N[C@@H](CCCNC(=N)N)C(=O)N[C@@H](COP(=O)(O)O)C(=O)N[C@H](C(=O)N[C@@H](COP(=O)(O)O)C(=O)N[C@H](C(=O)N1CCC[C@H]1C(=O)N[C@@H](CC(N)=O)C(=O)N[C@H](C(=O)N[C@@H](Cc1c[nH]cn1)C(=O)N[C@@H](C)C(=O)O)C(C)C)[C@@H](C)O)[C@@H](C)O [pS-Raf-257,259] (H-LSQRQR[pS]T[pS]TPNVHA-OH)	> 50	> 50 µM	> 50	> 50	–	–	–
LSQRQRSTSTPNVHM [Raf-259, LSQRQRSTSTPNVHM, reference compound]	–	–	–	–	~0.122	~0.0028	~23000
CC(C)C[C@H](N)C(=O)N[C@@H](CO)C(=O)N[C@@H](CCC(N)=O)C(=O)N[C@@H](C)C(=O)N[C@@H](CCC(N)=O)C(=O)N[C@@H](CO)C(=O)N[C@@H](CCCNC(=N)N)C(=O)N[C@H](C(=O)N[C@@H](COP(=O)(O)O)C(=O)N[C@H](C(=O)N1CCC[C@H]1C(=O)N[C@@H](CC(N)=O)C(=O)N[C@H](C(=O)N[C@@H](Cc1c[nH]cn1)C(=O)N[C@@H](C)C(=O)O)C(C)C)[C@@H](C)O)[C@@H](C)O [Peptide R-2] (H-LSQAQSRT[pS]TPNVHA-OH)	–	> 50 µM	–	–	–	–	–
